Measurements reported in patent publication US8003675B2 (priority 2006, dated 2011).

Experiments:
Stagonospora nodorum = experiment: Test for preventive effect on wheat glume blotch; type: in vivo; details: wheat (Nohrin No. 61), foliar spray 500 ppm, examined 12 days after inoculation
Method: Disease development degree=[(n0×0+n1×1+n2×2+n3×3+n4×4)/4×N]×100 [Expression 2]
n4: number of leaves of disease development degree 4 Protective value=[1−(disease development degree in treated plants)/(disease development degree in untreated plants)]×100 [Expression 3]
10 wheat seeds (variety: Nohrin No. 61) were sowed in a plastic cup of 5.5 cm in diameter and were grown in a greenhouse for 7 days. One of wettable powders prepared in accordance with Example 5 was diluted with water so that the concentration of active ingredient became 500 ppm, a spreader (brand name: KUMITEN) was added for the dilution factor to be 3,000 times, and a sufficient amount of the resulting solution was sprayed onto the leaves of wheat (1.5- to 2-leaf stage) using a spray gun. After air-drying, a suspension of the pycniospores of Stagonospora nodorum was sprayed for inoculation. Immediately thereafter, the wheat leaves were transferred into a moist chamber of 25° C. and allowed to stand under a bright condition for 48 hours for infection. Then, the wheat leaves were transferred into the greenhouse and, 12 days after the inoculation, the disease development index of each first leaf was examined according to the standard of Table 15. A disease development degree was calculated from the above expression 2. A protective value (%) was calculated from the above expression 3 and evaluated according to the standard of Table 16.

Pyricularia oryzae = type: in vivo; details: paddy rice (Aichi Asahi), submerged application, 10 g a.i./10 a, inoculated 10 days after treatment, lesions counted 6 days after inoculation
[1] = system: Colletotrichum orbiculare; experiment: Test for preventive effect for cucumber anthracnose; type: in vivo; details: cucumber (Sagamihanjiro), soil drench 10 ml at 1 ppm, inoculated 7 days later, lesions counted 7 days later
Method: Four cucumber seeds (variety: Sagamihanjiro) were sowed in a plastic cup of 5.5 cm in diameter, at a depth of 2 cm, and were grown in a greenhouse for 7 days. One of wettable powders prepared according to Example 5 was diluted with water so that the concentration of active ingredient became a given level. 10 ml of the dilution was poured into the soil at the root of young cucumber seedlings having cotyledons. 7 days later, a conidia suspension (10^5 to 10^6/ml) of Colletotrichum orbiculare which had been cultured in a PDA plate medium, was uniformly inoculated to the cucumber plant by hand spraying. The cup was allowed to stand, for infection, in a moist chamber of 25° C. for 24 hours. Then, the cup was allowed to stand on a basin in a glass greenhouse and, 7 day later, the number of lesions of all cotyledons in pot was examined. A protective value was calculated from the above expression 1 and evaluated according to the standard of Table 12.
Using the above-shown comparative compound, a wettable powder was prepared according to Example 5. A protective value thereof was calculated in the same manner as in the above Test Example.

Structure (SMILES) | Evaluation (Stagonospora nodorum) | Evaluation (Pyricularia oryzae) | Protective value (Pyricularia oryzae) [%] | Evaluation [1] | Protective value [1] [%] | melting point [°C]
Cc1cc(COC(=O)c2cc(C)ns2)sn1 [Comparative compound, reference compound] | D (protective value: less than 25%) | D (protective value: less than 50.0%) | 45.9 | C (protective value: less than 80.0% to 50.0% or more) | 73.3 | 
CC(=O)OCc1snc(Cl)c1Cl [I-1] |  | A (protective value: 100% to 90.0% or more) | 96.1 | B (protective value: less than 90.0% to 80.0% or more) | 86.9 | 
CC=CC=CC(=O)OCc1snc(Cl)c1Cl [I-24] |  | A (protective value: 100% to 90.0% or more) | 95.2 | B (protective value: less than 90.0% to 80.0% or more) | 89.1 | 
CC(=S)OCc1snc(Cl)c1Cl [I-28, (3,4-dichloroisothiazol-5-yl)methyl thioacetate] |  | C (protective value: less than 80.0% to 50.0% or more) | 79.9 |  |  | 
O=C(OCc1snc(Cl)c1Cl)c1ccccc1 [II-1, (3,4-dichloroisothiazol-5-yl)methyl benzoate] |  | A (protective value: 100% to 90.0% or more) | 92.3 | B (protective value: less than 90.0% to 80.0% or more) | 89.1 | 79 to 80
Cc1ccccc1C(=O)OCc1snc(Cl)c1Cl [II-5] | A (protective value: 100% to 75% or more) | A (protective value: 100% to 90.0% or more) | 94.6 |  |  | 
O=C(OCc1snc(Cl)c1Cl)c1ccccc1Cl [II-14] | B (protective value: less than 75% to 50% or more) | A (protective value: 100% to 90.0% or more) | 92.4 |  |  | 
N#Cc1ccccc1C(=O)OCc1snc(Cl)c1Cl [II-17] |  | A (protective value: 100% to 90.0% or more) | 98.2 |  |  | 
COC(=O)c1ccccc1C(=O)OCc1snc(Cl)c1Cl [II-24] | A (protective value: 100% to 75% or more) | A (protective value: 100% to 90.0% or more) | 98.3 |  |  | 
O=C(OCc1snc(Cl)c1Cl)c1ccccc1[N+](=O)[O-] [II-55] | A (protective value: 100% to 75% or more) | A (protective value: 100% to 90.0% or more) | 98.8 |  |  | 
COc1ccccc1C(=O)OCc1snc(Cl)c1Cl [II-57] | A (protective value: 100% to 75% or more) | A (protective value: 100% to 90.0% or more) | 98.4 |  |  | 
CS(=O)(=O)c1ccccc1C(=O)OCc1snc(Cl)c1Cl [II-66] | A (protective value: 100% to 75% or more) | A (protective value: 100% to 90.0% or more) | 97.8 |  |  | 
Cc1cccc(C)c1C(=O)OCc1snc(Cl)c1Cl [II-77] | A (protective value: 100% to 75% or more) | C (protective value: less than 80.0% to 50.0% or more) | 74.1 |  |  | 
O=C(OCc1snc(Cl)c1Cl)c1c(Cl)cccc1Cl [II-78] | B (protective value: less than 75% to 50% or more) | C (protective value: less than 80.0% to 50.0% or more) | 77.5 |  |  | 
COc1cccc(OC)c1C(=O)OCc1snc(Cl)c1Cl [II-79] | A (protective value: 100% to 75% or more) | A (protective value: 100% to 90.0% or more) | 92.3 |  |  | 
Cc1cccc([N+](=O)[O-])c1C(=O)OCc1snc(Cl)c1Cl [II-82] | A (protective value: 100% to 75% or more) | B (protective value: less than 90.0% to 80.0% or more) | 88.0 |  |  | 
